This assay concerns Influenza B virus. Description: Antiviral activity against Influenza virus […] B/Panama/45/1990 infected in MDCK cells at 0.001 MOI assessed as inhibition of virus cytopathic effect measured after 48 hrs by crystal violet staining based assay. It is filed as functional, organism-based. The settings on record: B/Panama/45/1990, MDCK. For orientation: Cytopathic effects are the visible damage that an infection or toxin causes in cultured cells.

SMILES strings stand for the structures.

In the case of `COc1cc(/C=C/C(=O)CC(=O)/C=C/c2ccc(O)c(OC)c2)ccc1O` [CURCUMIN], the 50% effective concentration (EC50) (in general, the concentration needed to bring the measured effect to its halfway point) came out at 0.47 µM.
Next, `O=C(O[C@@H]1Cc2c(O)cc(O)cc2O[C@@H]1c1ccc(O)c(O)c1)c1cc(O)c(O)c(O)c1` [EPICATECHIN GALLATE]: 22 µM; `O=C(O[C@@H]1Cc2c(O)cc(O)cc2O[C@@H]1c1cc(O)c(O)c(O)c1)c1cc(O)c(O)c(O)c1` [EPIGALOCATECHIN GALLATE]: 5.7 µM.

The record behind these values is ChEMBL document CHEMBL6134807, “A review-plant medicine and its extraction components inhibit influenza virus” (Bioorg Med Chem Lett, 2025).
